Results as given in the supplement of paper PMC10307832.

Experiments:
Experiment in all cases: relative viability (nuclei count vs DMSO), 5 days (fraction); higher = more cells survive
[1] = compound: C1=CC=C2C(=C1)N=C(S2)C(C#N)C3=NC(=NC=C3)NCCC4=CN=CC=C4 + CC(=O)c1c(C)c2cnc(Nc3ccc(N4CCNCC4)cn3)nc2n(C2CCCC2)c1=O [Palbociclib] (partner 0.5 µM)
In short: (§1)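 Nuclei were stained with Hoechst during a one-step fixation (final 0.05% Triton X-100, 1% formaldehyde, 1 ug/ml Hoechst) carried out 5 days after dosing, then counted on 4× images. The cells, lung cancer lines in 1536-well plates, had been dosed by pin tool the day after seeding with one drug alone or a fixed anchor-drug dose plus five library-drug doses (not always all listed) in √10 steps. Relative viability is the nuclei count in treated wells divided by that in vehicle wells, and each value is the median of duplicate plates.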

[2] = compound: C1=CC=C2C(=C1)N=C(S2)C(C#N)C3=NC(=NC=C3)NCCC4=CN=CC=C4 + C[C@@H](Oc1cc(-c2cnn(C3CCNCC3)c2)cnc1N)c1c(Cl)ccc(F)c1Cl [Crizotinib] (partner 1 µM)
In short: as §1

[3] = compound: C1=CC=C2C(=C1)N=C(S2)C(C#N)C3=NC(=NC=C3)NCCC4=CN=CC=C4 + C[C@]1(O)C[C@@H](c2nc(-c3ccc4ccc(-c5ccccc5)nc4c3)c3c(N)nccn32)C1 [Linsitinib] (partner 1 µM)
In short: as §1

[4] = compound: C1=CC=C2C(=C1)N=C(S2)C(C#N)C3=NC(=NC=C3)NCCC4=CN=CC=C4 + Cc1nc(NC(=O)N2CCC[C@H]2C(N)=O)sc1-c1ccnc(C(C)(C)C(F)(F)F)c1 [Alpelisib] (partner 2 µM)
In short: as §1

Row | Cell Line | relative viability ([1]; first compound 0.005 µM) | relative viability ([1]; first compound 0.01581 µM) | relative viability ([1]; first compound 0.05 µM) | relative viability ([1]; first compound 0.1581 µM) | relative viability ([1]; first compound 0.5 µM) | relative viability ([2]; first compound 0.005 µM) | relative viability ([2]; first compound 0.01581 µM) | relative viability ([2]; first compound 0.05 µM) | relative viability ([2]; first compound 0.1581 µM) | relative viability ([2]; first compound 0.5 µM) | relative viability ([3]; first compound 0.005 µM) | relative viability ([3]; first compound 0.01581 µM) | relative viability ([3]; first compound 0.05 µM) | relative viability ([3]; first compound 0.1581 µM) | relative viability ([3]; first compound 0.5 µM) | relative viability ([4]; first compound 0.005 µM) | relative viability ([4]; first compound 0.01581 µM) | relative viability ([4]; first compound 0.05 µM) | relative viability ([4]; first compound 0.1581 µM) | relative viability ([4]; first compound 0.5 µM)
1 | NCI-H2085 | 0.428 | 0.465 | 0.415 | 0.472 | 0.471 | 0.682 | 0.887 | 0.792 | 0.825 | 0.792 | 0.694 | 0.978 | 0.867 | 1.04 | 0.839 | 0.87 | 0.875 | 0.912 | 0.959 | 0.867
2 | NCI-H2087 | 0.24 | 0.208 | 0.214 | 0.261 | 0.227 | 0.908 | 0.807 | 0.76 | 0.954 | 0.727 | 1.03 | 0.954 | 1.07 | 1.1 | 0.915 | 1.06 | 1.14 | 0.979 | 1.14 | 1.05
3 | NCI-H2126 | 0.299 | 0.363 | 0.365 | 0.347 | 0.354 | 0.825 | 0.989 | 1.02 | 1.04 | 0.881 | 0.748 | 0.739 | 0.705 | 0.705 | 0.665 | 0.722 | 0.734 | 0.773 | 0.765 | 0.793
4 | NCI-H2228 | 0.564 | 0.886 | 0.649 | 1.12 | 0.597 | 0.464 | 0.444 | 0.483 | 0.454 | 0.386 | 0.792 | 0.762 | 0.629 | 0.734 | 0.634 | 0.513 | 0.715 | 0.754 | 0.818 | 0.524
5 | NCI-H2347 | 0.455 | 0.45 | 0.484 | 0.447 | 0.444 | 0.724 | 0.669 | 0.533 | 0.699 | 0.723 | 0.899 | 0.854 | 0.954 | 0.953 | 0.966 | 1.1 | 0.992 | 0.954 | 1.05 | 1.18
6 | NCI-H2405 | 0.462 | 0.572 | 0.543 | 0.533 | 0.461 | 0.819 | 0.915 | 0.872 |  | 0.809 | 0.817 | 0.889 | 0.847 | 0.911 | 1.01 | 0.75 | 0.784 | 0.734 | 0.731 | 0.839
7 | NCI-H3122 | 0.162 | 0.208 | 0.199 | 0.184 | 0.178 | 0.245 | 0.305 | 0.279 | 0.296 | 0.296 | 1.02 | 0.992 | 1.04 | 1.07 | 0.999 | 0.676 | 0.791 | 0.819 | 0.977 | 0.852
8 | PC-3 [JPC-3] | 0.592 |  | 0.534 | 0.532 | 0.515 | 0.712 | 1.07 | 1.01 | 0.948 | 0.846 | 0.898 | 0.983 | 0.957 | 0.942 | 0.965 | 0.935 | 1.02 | 0.96 | 1.08 | 0.954
9 | PC-14 | 0.34 | 0.479 | 0.515 | 0.559 | 0.441 | 0.856 | 0.961 | 0.929 | 0.972 | 0.744 | 0.914 | 1.07 | 0.972 | 1.08 | 0.896 | 0.708 | 1.08 | 1 | 1.17 | 0.742
10 | RERF-LC-KJ | 0.977 | 1.13 | 1.05 | 1.12 | 1.01 | 0.942 | 0.856 | 0.819 | 0.891 | 0.749 | 1.01 | 0.877 | 0.853 | 0.861 | 0.781 | 0.915 | 0.849 | 0.759 | 0.899 | 0.82
11 | SK-LU-1 | 0.412 | 0.399 | 0.31 | 0.41 | 0.395 |  | 0.853 | 0.95 | 1.16 | 0.907 |  | 1.08 | 1.01 | 1.47 | 1.07 |  | 0.962 | 0.824 | 1.27 | 0.858
12 | SK-MES-1 | 0.311 | 0.292 | 0.315 | 0.334 | 0.288 | 1.11 | 1.12 | 0.99 | 1.14 | 0.902 | 1.17 | 1.07 | 1.09 | 1.12 | 0.97 | 1.17 | 0.979 | 1.12 | 1.14 | 0.859
13 | SW 1573 | 0.306 | 0.325 | 0.389 | 0.478 | 0.299 | 0.753 | 0.809 | 0.722 | 0.793 | 0.785 | 0.725 | 0.776 | 0.792 | 0.895 | 0.745 | 0.628 | 0.726 |  | 0.803 | 0.686
